Data: ChEMBL document CHEMBL1201862, “PubChem BioAssay data set” (2004)
The source made the active and inactive calls.

What was measured:
[1] = molecular target: T1, Heat shock factor protein 1 (Mus musculus, UniProt P38532); assay: inhibition of MG132-induced HSE-luciferase signal, confirmation, cell-based, NIH3T3, luminescence, dose retest (AID 2382); type: functional;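 further: NIH3T3 fibroblasts with HSF1-driven luciferase reporter stressed by proteasome inhibitor MG132; luminescence from HSF1-driven luciferase expression after 8 hours of MG132 stress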
T1 sequence (P38532 whole entry): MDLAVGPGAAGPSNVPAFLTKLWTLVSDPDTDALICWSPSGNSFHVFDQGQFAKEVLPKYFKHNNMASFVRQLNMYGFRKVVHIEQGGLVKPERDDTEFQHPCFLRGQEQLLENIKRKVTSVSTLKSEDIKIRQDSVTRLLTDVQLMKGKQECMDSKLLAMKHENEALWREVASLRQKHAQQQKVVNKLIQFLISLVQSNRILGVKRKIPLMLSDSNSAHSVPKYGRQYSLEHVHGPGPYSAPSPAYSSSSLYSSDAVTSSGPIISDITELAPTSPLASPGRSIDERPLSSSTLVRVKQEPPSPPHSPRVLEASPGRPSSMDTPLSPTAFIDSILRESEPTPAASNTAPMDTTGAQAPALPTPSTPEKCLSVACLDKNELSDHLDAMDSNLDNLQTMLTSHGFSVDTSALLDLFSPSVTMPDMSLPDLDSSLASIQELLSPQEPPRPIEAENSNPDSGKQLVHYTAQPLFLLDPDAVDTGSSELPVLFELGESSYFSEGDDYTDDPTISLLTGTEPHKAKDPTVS

[2] = P. falciparum late gametocyte killing, dose response, luminescence (AID 1117278); type: functional, cell-based;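 further: gametocytes exposed to compound for 24 hours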
[3] = Jurkat T cell cytotoxicity, dose response, cytotoxicity control for P. falciparum gametocyte viability project, luminescence (AID 1117277); type: functional, cell-based;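 further: potency reflects loss of cellular ATP meaning fewer viable cells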
Prothrombin = Prothrombin (Homo sapiens, UniProt P00734); assay: Thrombin 1536 HTS Dose Response Confirmation. [Related pubchem assays: 1046 (Thrombin 1536 HTS; hits were confirmed in this assay)]; type: functional
14-3-3 protein gamma = molecular target: T2, 14-3-3 protein gamma (Homo sapiens, UniProt P61981); assay: modulators of 14-3-3 gamma client binding – dose response (AID 711); type: functional
T2 sequence (P61981 whole entry): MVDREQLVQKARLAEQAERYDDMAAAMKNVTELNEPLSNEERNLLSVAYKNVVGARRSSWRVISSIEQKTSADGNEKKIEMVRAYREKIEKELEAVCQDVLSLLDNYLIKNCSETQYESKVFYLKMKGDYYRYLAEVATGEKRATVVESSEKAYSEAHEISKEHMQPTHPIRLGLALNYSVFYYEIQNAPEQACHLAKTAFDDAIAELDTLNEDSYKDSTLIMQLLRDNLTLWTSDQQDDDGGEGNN

Cytochrome P450 2D6 = Cytochrome P450 2D6 (Homo sapiens, UniProt P10635);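 further: CYP2D6 member of a cytochrome P450 panel assay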
Cytochrome P450 2C9 = Cytochrome P450 2C9 (Homo sapiens, UniProt P11712)
Cytochrome P450 2C19 = Cytochrome P450 2C19 (Homo sapiens, UniProt P33261); assay: Cytochrome panel assay with activity outcomes. Panel member name: p450-cyp2c19 Compounds with AC50 equal or less than 10 uM are considered active; type: functional
[4] = molecular target: T3, Oxysterols receptor LXR-beta (Homo sapiens, UniProt P55055); type: functional, cell-based;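 further: Cell-based luminescence dose-response assay of agonist activity at LXR, run as a confirmatory counterscreen to a daf-12 agonist screen; HEK293 cells with Gal4-LXR fusion and GAL4-driven luciferase reporter; agonist potency from rising luciferase signal of a Gal4-LXR reporter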
T3 sequence (P55055 whole entry): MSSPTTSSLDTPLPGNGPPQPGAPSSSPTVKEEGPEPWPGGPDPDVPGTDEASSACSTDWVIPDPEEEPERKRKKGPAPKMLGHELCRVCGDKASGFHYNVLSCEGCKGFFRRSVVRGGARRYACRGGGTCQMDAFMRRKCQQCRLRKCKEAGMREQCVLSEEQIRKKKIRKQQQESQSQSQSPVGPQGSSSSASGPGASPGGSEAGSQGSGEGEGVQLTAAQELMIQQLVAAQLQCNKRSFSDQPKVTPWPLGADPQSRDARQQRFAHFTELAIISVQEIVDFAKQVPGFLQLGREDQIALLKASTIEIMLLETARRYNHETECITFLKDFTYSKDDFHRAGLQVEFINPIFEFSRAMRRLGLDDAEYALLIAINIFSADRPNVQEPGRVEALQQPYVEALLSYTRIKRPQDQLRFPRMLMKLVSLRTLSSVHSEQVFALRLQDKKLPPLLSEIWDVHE

[5] = molecular target: E3 ubiquitin-protein ligase Mdm2 (Homo sapiens, UniProt Q00987); assay: enhancers of MDM2-luciferase reporter signal, concentration-effect titration, project on inhibitors of MDM2 ubiquitin ligase, cellular assay, luminescent readout, 384-well plate format (AID 1394); type: functional;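 further: MDM2 E3 inhibitors raise luminescence so EC50 is for signal enhancement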
BJ [6] = assay: cytotoxicity toward BJ-TERT fibroblasts, dose response, cell-based, RAS-independent, luminescence (AID 1933); type: functional; conditions: Homo sapiens
BJ [7] = assay: cells; type: functional, cell-based; conditions: Homo sapiens
[8] = MC4R antagonists, dose response, counter-screen for LGR2 antagonist project, cell-based, plate reader, cherry pick (AID 743444); type: functional;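 further: transfected HEK 293 cells stimulated with alpha-MSH peptide; potency of inhibitors of the alpha-MSH evoked signal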
[9] = non-specific cell cytotoxicity, dose response, cytotoxicity control for PAX8 inhibitor project, plate reader, dry powder samples (AID 743021); type: functional, cell-based
[10] = ZM109 Env clade C HIV-1 fusion inhibitors, dose response, HeLa effector, CEM target cells, luciferase, cherry-pick (AID 652058); type: functional, cell-based
[11] = HEK293 cell cytotoxicity, dose response, cytotoxicity control, plate reader, cherry-picked samples (AID 743446); type: functional, cell-based
[12] = molecular target: Heat shock protein HSP 90-alpha (Homo sapiens, UniProt P07900); type: functional, organism-based
[13] = LGR2 antagonists, dose response, cell-based, HEK293, CRE-luciferase reporter, cherry pick, set 2 (AID 743343); type: functional;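 further: transfected cells were stimulated with diluted bursicon conditioned medium after compound addition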
Paired box protein Pax-8 = Paired box protein Pax-8 (Homo sapiens, UniProt Q06710); assay: inhibitors of PAX8-driven TPO luciferase reporter, dose response, RMG-I cells, cherry-pick (AID 687027); type: functional, cell-based;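 further: luciferase reporter driven by Pax8 target thyroperoxidase promoter measured by SteadyGlo luminescence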
[14] = CEM21 lymphoblast cell cytotoxicity, dose response, cytotoxicity control for viral fusion inhibitor project, CellTiter-Glo luminescence, cherry-picked (AID 652042); type: functional, cell-based;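 further: potency for signal decrease meaning cytotoxicity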
[15] = HepG2 cell cytotoxicity, dose response, cytotoxicity control, plate reader, cherry-pick, antagonist series (AID 743416); type: functional, cell-based
[16] = A549 cell cytotoxicity, dose response, cytotoxicity control, plate reader, cherry-pick, antagonist series (AID 743412); type: functional, cell-based
[17] = cytotoxicity toward DRD oncogenic fibroblasts, dose response, cell-based, non-viral oncogenic, luminescence (AID 1934); type: functional; conditions: Homo sapiens
INS1 = assay: beta cell apoptosis inhibitors, cytokine rescue, dose response, luminescence, retest (AID 449756); type: functional, cell-based; conditions: Rattus norvegicus;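 further: cell death triggered by IL-1 beta plus TNF-alpha plus IFN-gamma mixture; protective hits raise ATP signal compared with cytokine alone wells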
[18] = off-target signal loss in HeLa-CEM21 co-culture – HeLa F-luc CTL cells, cherry-picked, counter-screen for HIV-1 Env fusion inhibitor project, dose response (AID 652040); type: functional, cell-based;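 further: potency for signal decrease marking cytotoxic or nonspecific inhibition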
BJ [19] = assay: cytotoxicity toward BJ-TERT-LT-ST fibroblasts, dose response, cell-based, RAS-independent, luminescence (AID 1935); type: functional; conditions: Homo sapiens;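 further: BJ fibroblasts immortalized with TERT plus LT and ST oncogenes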
[20] = inhibitors of clade B AD8 Env fusion, dose response, cell-based, cherry-pick (AID 652062); type: functional;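 further: luciferase signal from cell-cell fusion driven by HIV-1 clade B AD8 Env; potency is for inhibitors of fusion seen as a drop in luminescence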
[21] = inhibitors of HIV Env-driven cell fusion, dose response, cherry-pick (AID 652057); type: functional, cell-based
[22] = molecular target: T4, Polyadenylate-binding protein 1 (Homo sapiens, UniProt P11940); assay: PABP1 MLLE–PAM2 interaction inhibitors, dose response, miRNA deadenylation inhibitor project, biochemical, fluorescence polarization, Cy5-PAM2 peptide, secondary (AID 602260); type: functional; conditions: read-out: IC50_Mean
Aminopeptidase N = molecular target: T5, Aminopeptidase N (Plasmodium falciparum FcB1/Columbia, UniProt O96935); assay: P. falciparum M1AAP inhibitors, biochemical, fluorogenic H-Leu-NHMec substrate, 1536-well (AID 1445); parameters: species or system Plasmodium falciparum 3D7, 3D7
T5 sequence (O96935 whole entry): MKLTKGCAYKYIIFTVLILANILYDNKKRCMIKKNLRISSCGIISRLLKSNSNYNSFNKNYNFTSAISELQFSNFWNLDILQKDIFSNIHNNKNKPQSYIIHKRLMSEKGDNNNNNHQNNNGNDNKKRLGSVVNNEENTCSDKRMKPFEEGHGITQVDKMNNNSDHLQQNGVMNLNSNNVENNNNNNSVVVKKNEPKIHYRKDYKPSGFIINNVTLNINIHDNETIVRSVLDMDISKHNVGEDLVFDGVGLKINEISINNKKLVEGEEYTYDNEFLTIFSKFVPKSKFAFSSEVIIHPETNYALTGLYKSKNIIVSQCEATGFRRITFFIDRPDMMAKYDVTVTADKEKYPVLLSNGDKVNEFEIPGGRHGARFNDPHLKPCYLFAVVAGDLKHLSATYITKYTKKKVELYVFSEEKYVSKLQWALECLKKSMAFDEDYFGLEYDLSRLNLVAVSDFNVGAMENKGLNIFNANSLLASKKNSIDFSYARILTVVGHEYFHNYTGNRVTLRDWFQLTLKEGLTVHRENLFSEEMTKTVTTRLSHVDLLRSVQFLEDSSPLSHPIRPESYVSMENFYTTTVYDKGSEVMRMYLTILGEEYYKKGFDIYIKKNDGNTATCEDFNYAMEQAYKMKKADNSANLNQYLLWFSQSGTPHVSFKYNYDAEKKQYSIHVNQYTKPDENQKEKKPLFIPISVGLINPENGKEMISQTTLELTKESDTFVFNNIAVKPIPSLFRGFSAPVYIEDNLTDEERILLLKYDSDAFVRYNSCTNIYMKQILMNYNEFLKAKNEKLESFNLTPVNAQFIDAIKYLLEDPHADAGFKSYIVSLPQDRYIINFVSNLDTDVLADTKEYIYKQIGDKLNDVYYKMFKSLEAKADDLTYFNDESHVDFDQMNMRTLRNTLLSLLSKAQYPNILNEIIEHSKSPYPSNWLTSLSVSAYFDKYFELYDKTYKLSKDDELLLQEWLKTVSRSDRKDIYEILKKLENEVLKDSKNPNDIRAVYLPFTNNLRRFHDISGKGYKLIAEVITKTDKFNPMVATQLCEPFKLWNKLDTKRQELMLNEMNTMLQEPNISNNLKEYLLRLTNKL

[23] = molecular target: T4, Polyadenylate-binding protein 1; assay: PABP1 MLLE–PAM2 binding inhibitor potency, dose response, biochemical, fluorescence polarization, FITC-PAM2 peptide (AID 602259); type: functional; conditions: read-out: IC50_Mean
[24] = molecular target: Endoplasmic reticulum aminopeptidase 1 (Homo sapiens, UniProt Q9NZ08); assay: ERAP1 aminopeptidase inhibitors, dose response, biochemical, cherry-pick, set 2, plate reader (AID 743314)
Endoplasmic reticulum aminopeptidase 1, sequence (Q9NZ08 whole entry): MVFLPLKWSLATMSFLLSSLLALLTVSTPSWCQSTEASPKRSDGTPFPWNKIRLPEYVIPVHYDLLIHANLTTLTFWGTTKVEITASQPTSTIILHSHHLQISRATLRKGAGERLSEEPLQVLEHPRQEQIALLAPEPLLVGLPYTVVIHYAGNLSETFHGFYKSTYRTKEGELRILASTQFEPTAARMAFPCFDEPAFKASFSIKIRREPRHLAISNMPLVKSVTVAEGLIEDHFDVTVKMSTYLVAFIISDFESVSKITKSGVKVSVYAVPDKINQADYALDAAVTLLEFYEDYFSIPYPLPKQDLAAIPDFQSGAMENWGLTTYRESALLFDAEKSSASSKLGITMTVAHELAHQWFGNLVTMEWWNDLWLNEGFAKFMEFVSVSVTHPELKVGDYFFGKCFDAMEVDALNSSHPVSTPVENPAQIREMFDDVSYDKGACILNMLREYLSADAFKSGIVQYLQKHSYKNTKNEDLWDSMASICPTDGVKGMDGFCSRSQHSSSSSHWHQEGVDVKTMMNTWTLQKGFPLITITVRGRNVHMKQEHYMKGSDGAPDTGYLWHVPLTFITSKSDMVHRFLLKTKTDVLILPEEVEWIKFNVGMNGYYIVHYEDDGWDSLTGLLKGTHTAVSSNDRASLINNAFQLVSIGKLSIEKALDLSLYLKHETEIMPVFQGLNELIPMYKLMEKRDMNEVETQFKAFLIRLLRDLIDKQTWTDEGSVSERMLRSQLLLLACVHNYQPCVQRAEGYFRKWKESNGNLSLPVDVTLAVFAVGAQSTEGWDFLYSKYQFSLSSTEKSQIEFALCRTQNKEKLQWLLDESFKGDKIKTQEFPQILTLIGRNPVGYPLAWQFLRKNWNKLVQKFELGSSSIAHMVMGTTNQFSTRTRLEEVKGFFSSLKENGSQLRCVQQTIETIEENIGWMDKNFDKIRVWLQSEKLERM

E3 ubiquitin-protein ligase Mdm2, sequence (Q00987 whole entry): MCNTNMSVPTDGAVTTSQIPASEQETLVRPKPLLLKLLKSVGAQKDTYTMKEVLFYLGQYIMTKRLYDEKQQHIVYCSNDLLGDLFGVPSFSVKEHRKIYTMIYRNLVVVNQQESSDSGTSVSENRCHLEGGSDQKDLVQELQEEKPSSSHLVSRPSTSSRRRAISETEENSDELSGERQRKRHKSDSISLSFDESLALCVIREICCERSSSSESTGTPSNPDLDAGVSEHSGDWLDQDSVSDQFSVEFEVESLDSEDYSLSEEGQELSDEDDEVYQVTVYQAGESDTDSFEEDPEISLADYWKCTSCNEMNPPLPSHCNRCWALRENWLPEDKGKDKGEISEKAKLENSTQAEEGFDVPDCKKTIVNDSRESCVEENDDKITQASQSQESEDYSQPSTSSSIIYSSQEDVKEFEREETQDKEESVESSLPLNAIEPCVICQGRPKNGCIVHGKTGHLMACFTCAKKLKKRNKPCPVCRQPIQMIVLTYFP
T4 sequence (P11940 whole entry): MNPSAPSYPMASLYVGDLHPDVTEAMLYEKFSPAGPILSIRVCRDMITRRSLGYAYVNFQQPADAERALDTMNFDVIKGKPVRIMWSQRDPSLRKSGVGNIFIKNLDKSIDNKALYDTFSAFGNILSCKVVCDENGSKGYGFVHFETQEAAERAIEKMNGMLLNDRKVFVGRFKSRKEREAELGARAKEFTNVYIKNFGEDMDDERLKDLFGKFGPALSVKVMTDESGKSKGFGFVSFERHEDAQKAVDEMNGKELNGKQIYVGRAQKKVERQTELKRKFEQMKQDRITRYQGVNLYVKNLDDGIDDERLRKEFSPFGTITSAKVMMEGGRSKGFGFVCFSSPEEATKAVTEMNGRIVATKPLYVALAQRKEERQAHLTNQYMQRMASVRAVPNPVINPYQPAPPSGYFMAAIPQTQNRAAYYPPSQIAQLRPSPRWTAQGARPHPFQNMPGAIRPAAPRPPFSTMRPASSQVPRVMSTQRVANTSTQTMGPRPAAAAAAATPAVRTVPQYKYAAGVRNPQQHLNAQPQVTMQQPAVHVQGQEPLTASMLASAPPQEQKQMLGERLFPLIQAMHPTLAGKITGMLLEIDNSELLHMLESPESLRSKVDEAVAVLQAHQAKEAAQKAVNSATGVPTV
Paired box protein Pax-8, sequence (Q06710 whole entry, the tested form may be a part): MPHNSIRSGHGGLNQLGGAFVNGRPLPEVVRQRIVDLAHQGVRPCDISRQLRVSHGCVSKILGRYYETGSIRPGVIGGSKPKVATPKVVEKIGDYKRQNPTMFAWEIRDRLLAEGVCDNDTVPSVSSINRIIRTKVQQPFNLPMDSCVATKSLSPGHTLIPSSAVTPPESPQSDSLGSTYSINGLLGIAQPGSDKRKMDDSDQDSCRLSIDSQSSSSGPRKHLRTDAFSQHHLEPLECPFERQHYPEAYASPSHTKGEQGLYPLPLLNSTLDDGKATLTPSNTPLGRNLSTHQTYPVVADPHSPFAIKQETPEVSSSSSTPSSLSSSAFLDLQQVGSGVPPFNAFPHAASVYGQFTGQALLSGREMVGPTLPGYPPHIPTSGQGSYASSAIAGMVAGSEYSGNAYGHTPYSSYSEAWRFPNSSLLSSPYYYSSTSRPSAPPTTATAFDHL
Cytochrome P450 2D6, sequence (P10635 whole entry): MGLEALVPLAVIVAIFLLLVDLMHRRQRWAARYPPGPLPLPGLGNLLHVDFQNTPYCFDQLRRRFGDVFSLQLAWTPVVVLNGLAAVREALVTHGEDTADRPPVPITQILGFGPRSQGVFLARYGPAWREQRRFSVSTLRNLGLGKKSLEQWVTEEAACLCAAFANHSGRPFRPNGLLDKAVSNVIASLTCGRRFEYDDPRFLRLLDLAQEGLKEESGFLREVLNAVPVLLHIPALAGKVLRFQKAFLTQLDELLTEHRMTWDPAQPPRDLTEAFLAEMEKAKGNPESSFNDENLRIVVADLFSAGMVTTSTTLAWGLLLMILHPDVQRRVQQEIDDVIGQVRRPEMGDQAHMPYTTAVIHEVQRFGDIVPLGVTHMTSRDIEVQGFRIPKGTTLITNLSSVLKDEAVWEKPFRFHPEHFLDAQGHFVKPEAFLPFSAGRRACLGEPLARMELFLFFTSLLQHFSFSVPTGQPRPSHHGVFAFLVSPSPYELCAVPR
Cytochrome P450 2C19, sequence (P33261 whole entry, the tested form may be a part): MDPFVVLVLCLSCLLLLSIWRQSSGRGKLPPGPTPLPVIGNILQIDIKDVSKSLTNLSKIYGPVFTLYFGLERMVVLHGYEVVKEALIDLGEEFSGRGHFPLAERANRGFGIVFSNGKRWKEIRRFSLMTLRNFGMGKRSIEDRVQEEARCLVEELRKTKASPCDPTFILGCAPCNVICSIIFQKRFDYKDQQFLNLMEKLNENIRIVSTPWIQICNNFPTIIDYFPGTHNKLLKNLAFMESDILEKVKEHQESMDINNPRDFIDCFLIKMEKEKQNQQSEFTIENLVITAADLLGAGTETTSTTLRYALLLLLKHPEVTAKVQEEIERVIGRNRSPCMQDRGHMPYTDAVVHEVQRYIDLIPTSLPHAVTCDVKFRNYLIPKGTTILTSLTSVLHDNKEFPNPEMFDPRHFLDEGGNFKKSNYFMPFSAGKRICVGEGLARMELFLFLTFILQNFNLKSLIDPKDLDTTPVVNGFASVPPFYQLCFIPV
Cytochrome P450 2C9, sequence (P11712 whole entry): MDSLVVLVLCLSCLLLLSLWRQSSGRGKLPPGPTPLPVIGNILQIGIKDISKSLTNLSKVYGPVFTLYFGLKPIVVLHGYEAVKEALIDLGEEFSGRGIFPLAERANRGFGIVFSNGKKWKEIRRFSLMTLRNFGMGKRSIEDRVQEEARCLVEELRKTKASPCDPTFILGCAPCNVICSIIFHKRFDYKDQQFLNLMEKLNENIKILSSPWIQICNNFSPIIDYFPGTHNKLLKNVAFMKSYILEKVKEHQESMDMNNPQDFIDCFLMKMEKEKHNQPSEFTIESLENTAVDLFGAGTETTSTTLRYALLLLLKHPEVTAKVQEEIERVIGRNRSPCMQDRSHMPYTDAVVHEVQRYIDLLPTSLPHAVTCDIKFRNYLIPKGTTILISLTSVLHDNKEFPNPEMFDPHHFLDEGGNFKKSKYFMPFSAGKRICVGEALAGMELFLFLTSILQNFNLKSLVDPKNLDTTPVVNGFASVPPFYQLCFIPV

## CN(C)c1nc(OCCNC(=O)COc2ccc(Cl)cc2Cl)nc(N(C)C)n1
[1]
  EC50: > 195 µM (not active)
[2]
  IC50: > 109 µM (inactive)
[3]
  IC50: > 83.3 µM (inactive)

## COc1ccc(C(=O)n2ncc(C#N)c2N)cc1
Prothrombin
  IC50: 15.1 µM (active)

## Cc1ccccc1CS(=O)(=O)Cc1ccc(C(=O)NCc2ccccn2)o1
14-3-3 protein gamma
  IC50: 50 µM (not active)

## Cn1cc(-c2nnc(-c3ccccc3)o2)c2ccccc21
Cytochrome P450 2D6
  AC50: 3.55 µM (inconclusive)
Cytochrome P450 2C9
  AC50: inconclusive
Cytochrome P450 2C19
  AC50: inconclusive
cells
  EC50: > 67.5 µM (inactive)
[4]
  EC50: > 67.5 µM (inactive)

## CCCCC1(C(=O)OCC)CC(CN2CCOCC2)OC1=O (stereo not drawn)
14-3-3 protein gamma
  IC50: > 50 µM (not active)

## COc1ccc(C)cc1NC(=O)C(OC(=O)CNC(=O)c1cc(C)cc(C)c1)c1ccccc1 (stereo not drawn)
[5]
  EC50: 7.51 µM (not active)

## Cc1nn(-c2nc3ccccc3[nH]2)c(=O)c2ccccc12
BJ [6]
  EC50: 1.06 µM (active)
BJ [7]
  EC50: 1.04 µM (active)
[8]
  AC50: 0.352 µM (active)
[9]
  AC50: 1.72 µM (active)
[10]
  AC50: 5.84 µM (active)
[11]
  AC50: 2.33 µM (active)
[12]
  AC50: 4.97 µM (active)
[13]
  AC50: 0.352 µM (active)
Paired box protein Pax-8
  AC50: 1.54 µM (active)
[14]
  AC50: 2.08 µM (active)
[15]
  AC50: 14.8 µM (active)
[16]
  AC50: 2.04 µM (active)
[2]
  IC50: 8.6 µM (active)
[17]
  EC50: 1.01 µM (active)
[3]
  IC50: 2.41 µM (active)
INS1
  AC50: 1.3 µM (active)
[18]
  AC50: 1.36 µM (active)
BJ [19]
  EC50: 3.5 µM (active)
[20]
  AC50: 1.46 µM (active)
[21]
  AC50: 0.534 µM (active)

## c1ccc2c(-c3nnc4n3CCCCC4)cc(-c3ccncc3)nc2c1
Prothrombin
  IC50: > 50 µM (not active)

## CCN(CC)Cc1c(O)c(Cl)cc2c(C)cc(=O)oc12
[22]
  IC50: > 66 µM (inactive)
Aminopeptidase N
  IC50: 48.6 µM (active)
[23]
  IC50: 39.1 µM (inactive)
[24]
  AC50: 4.88 µM (active)

## COc1ccc(N2C(S)=NC(=Nc3ccccc3)C23CCCCC3)cc1
Prothrombin
  IC50: > 50 µM (not active)

## COc1cc2nc(CN(C)Cc3ccc(F)cc3)nc(O)c2cc1OC
[2]
  IC50: > 109 µM (inactive)
[3]
  IC50: > 83.2 µM (inactive)

## OCc1cccc(-c2cnc3c(Nc4cccc(OC(F)(F)C(F)F)c4)nccn23)c1
[8]
  AC50: 26.8 µM (active)
[11]
  AC50: > 52 µM (inactive)
[13]
  AC50: 23.8 µM (active)
[15]
  AC50: 41.7 µM (active)
[16]
  AC50: 43.3 µM (active)

## CC(C)(C)c1ccc(Nc2[nH]nc3ccccc23)cc1
cells
  EC50: > 67.6 µM (inactive)
[4]
  EC50: > 67.6 µM (inactive)

## N#C[C@H]1[C@H](c2ccc(C#Cc3ccccc3F)cc2)[C@H](CO)N1C(=O)C1CC1
[8]
  AC50: 12.8 µM (active)
[11]
  AC50: 15.4 µM (active)
[13]
  AC50: 16.4 µM (active)
[15]
  AC50: 34.7 µM (active)
[16]
  AC50: 23.9 µM (active)

## CCCN(CCC)CCNc1c(NC2CCN(C(=O)OCC)CC2)c(=O)c1=O
[5]
  EC50: 16.1 µM (not active)
